Earlier results on two compounds are cited in patent publication US8802142B2, “Pharmaceutical compositions comprising levetiracetam and process for their preparation” (UCB Pharma, S.A., priority 2005, dated 2014).

For the data set the following is noted: A. J. Gower et al., Eur. J. Pharmacol., 222, 1992, 193-203.

On to `CC[C@@H](C(N)=O)N1CCCC1=O` [Levetiracetam, (S)-(−)-α-ethyl-2-oxo-1-pyrrolidine acetamide], for which the “activity in the treatment of epilepsy” value is reported as “effective”.
Consider “(R)-(−)-α-ethyl-2-oxo-1-pyrrolidine acetamide”, for which the “activity in the treatment of epilepsy” value was “completely lacks activity”.
